# “And” between values parts separate entries of the source, which are not always exact repeats. Identical values can stand only once.
# System: 328373-195-R-J1-PDC complex spheroids, viability % test/control
# Test: Anticancer human tumor 328373-195-R-J1-PDC patient-derived head and neck squamous carcinoma cell line growth inhibition [CLK]
# Conditions: for viability, T/C: stronger effect = lower value
# Summary of the method: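 Multi-cell-type spheroids combined patient-derived tumor cells with HUVEC endothelial cells and human mesenchymal stem cells. Paired agents were dosed in half-log steps down from about clinical Cmax, or from 10 microM where Cmax was unknown.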
# [1] = curve of first compound, second compound 0.0316 µM
# [2] = curve of first compound, second compound 0.1 µM
# [3] = curve of first compound, second compound 0.316 µM
# [4] = curve of first compound, second compound 1 µM
# [5] = curve of first compound, second compound 3.16 µM
# [6] = curve of first compound, second compound 10 µM
# [7] = second compound 0.0316 µM, first compound 0.0316 µM
# [8] = second compound 0.0316 µM, first compound 0.1 µM
# [9] = second compound 0.0316 µM, first compound 0.316 µM
# [10] = second compound 0.0316 µM, first compound 1 µM
# [11] = second compound 0.0316 µM, first compound 3.16 µM
# [12] = second compound 0.0316 µM, first compound 10 µM
# [13] = second compound 0.1 µM, first compound 0.0316 µM
# [14] = second compound 0.1 µM, first compound 0.1 µM
# [15] = second compound 0.1 µM, first compound 0.316 µM
# [16] = second compound 0.1 µM, first compound 1 µM
# [17] = second compound 0.1 µM, first compound 3.16 µM
# [18] = second compound 0.1 µM, first compound 10 µM
# [19] = second compound 0.316 µM, first compound 0.0316 µM
# [20] = second compound 0.316 µM, first compound 0.1 µM
# [21] = second compound 0.316 µM, first compound 0.316 µM
# [22] = second compound 0.316 µM, first compound 1 µM
# [23] = second compound 0.316 µM, first compound 3.16 µM
# [24] = second compound 0.316 µM, first compound 10 µM
# [25] = second compound 1 µM, first compound 0.0316 µM
# [26] = second compound 1 µM, first compound 0.1 µM
# [27] = second compound 1 µM, first compound 0.316 µM
# [28] = second compound 1 µM, first compound 1 µM
# [29] = second compound 1 µM, first compound 3.16 µM
# [30] = second compound 1 µM, first compound 10 µM
# [31] = second compound 3.16 µM, first compound 0.0316 µM
# [32] = second compound 3.16 µM, first compound 0.1 µM
# [33] = second compound 3.16 µM, first compound 0.316 µM
# [34] = second compound 3.16 µM, first compound 1 µM
# [35] = second compound 3.16 µM, first compound 3.16 µM
# [36] = second compound 3.16 µM, first compound 10 µM
# [37] = second compound 10 µM, first compound 0.0316 µM
# [38] = second compound 10 µM, first compound 0.1 µM
# [39] = second compound 10 µM, first compound 0.316 µM
# [40] = second compound 10 µM, first compound 1 µM
# [41] = second compound 10 µM, first compound 3.16 µM
# [42] = second compound 10 µM, first compound 10 µM
# 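Note: spheroids exposed to the agents for 7 days.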
smiles,measurement,setting,value
C=CC(=O)Nc1cc(Nc2nccc(-c3cn(C)c4ccccc34)n2)c(OC)cc1N(C)CCN(C)C,"viability, T/C",compound 0.000949 µM,97.9% and 96%
same,"viability, T/C",compound 0.003 µM,96.8% and 91.2%
same,"viability, T/C",compound 0.00949 µM,94% and 91.6%
same,"viability, T/C",compound 0.03 µM,94.2% and 92.4%
same,"viability, T/C",compound 0.0949 µM,83.8% and 91.1%
same,"viability, T/C",compound 0.3 µM,91.3% and 84.8%
same,IC50,curve of compound,> 0.3 µM
CC1(C)CCC(CN2CCN(c3ccc(C(=O)NS(=O)(=O)c4ccc(NCC5CCOCC5)c([N+](=O)[O-])c4)c(Oc4cnc5[nH]ccc5c4)c3)CC2)=C(c2ccc(Cl)cc2)C1 + CNC(=O)c1ccc(Nc2nc(OC3CCCC3)c3c(-c4ccc5nc(C)oc5c4)c[nH]c3n2)c(OC)c1,IC50,[1],1.39 µM
same,IC50,[2],< 0.0316 µM
same,IC50,[3],< 0.0316 µM
same,IC50,[4],< 0.0316 µM
same,IC50,[5],< 0.0316 µM
same,IC50,[6],< 0.0316 µM
same,"viability, T/C",[7],55.4%
same,"viability, T/C",[8],54.7%
same,"viability, T/C",[9],51.1%
same,"viability, T/C",[10],55.7%
same,"viability, T/C",[11],39.5%
same,"viability, T/C",[12],7.81%
same,"viability, T/C",[13],9.96%
same,"viability, T/C",[14],10.7%
same,"viability, T/C",[15],12.1%
same,"viability, T/C",[16],11.7%
same,"viability, T/C",[17],11.5%
same,"viability, T/C",[18],6.36%
same,"viability, T/C",[19],10%
same,"viability, T/C",[20],10.9%
same,"viability, T/C",[21],10.2%
same,"viability, T/C",[22],9.51%
same,"viability, T/C",[23],8.53%
same,"viability, T/C",[24],6.4%
same,"viability, T/C",[25],7.73%
same,"viability, T/C",[26],8.42%
same,"viability, T/C",[27],10.8%
same,"viability, T/C",[28],10.6%
same,"viability, T/C",[29],9.13%
same,"viability, T/C",[30],6.23%
same,"viability, T/C",[31],8.9%
same,"viability, T/C",[32],11.5%
same,"viability, T/C",[33],10.7%
same,"viability, T/C",[34],10.2%
same,"viability, T/C",[35],9.43%
same,"viability, T/C",[36],6.44%
same,"viability, T/C",[37],12.1%
same,"viability, T/C",[38],9.87%
same,"viability, T/C",[39],10.2%
same,"viability, T/C",[40],11.4%
same,"viability, T/C",[41],12.4%
same,"viability, T/C",[42],11.9%
CCN1CCN(Cc2ccc(Nc3ncc(F)c(-c4cc(F)c5nc(C)n(C(C)C)c5c4)n3)nc2)CC1,"viability, T/C",compound 0.00316 µM,101% and 89.8%
same,"viability, T/C",compound 0.01 µM,77.4% and 78.7%
same,"viability, T/C",compound 0.0316 µM,82.7% and 83.1%
same,"viability, T/C",compound 0.1 µM,77.4% and 78.6%
same,"viability, T/C",compound 0.316 µM,64.9% and 69.7%
same,"viability, T/C",compound 1 µM,59.8% and 52.3%
same,IC50,curve of compound,> 1 µM
O=C(c1cc(Cc2n[nH]c(=O)c3ccccc23)ccc1F)N1CCN(C(=O)C2CC2)CC1 + CN1CCN(c2cc(C(=O)Nc3cc4cc(-c5cnn(C)c5)ccc4cn3)ccn2)CC1,IC50,[1],> 10 µM
same,IC50,[2],> 10 µM
same,IC50,[3],< 0.0316 µM
same,IC50,[4],< 0.0316 µM
same,IC50,[5],< 0.0316 µM
same,IC50,[6],< 0.0316 µM
same,"viability, T/C",[7],92.9%
same,"viability, T/C",[8],91%
same,"viability, T/C",[9],98.9%
same,"viability, T/C",[10],92.7%
same,"viability, T/C",[11],90.4%
same,"viability, T/C",[12],78.5%
same,"viability, T/C",[13],76.8%
same,"viability, T/C",[14],81.4%
same,"viability, T/C",[15],86.4%
same,"viability, T/C",[16],83.9%
same,"viability, T/C",[17],79%
same,"viability, T/C",[18],57.1%
same,"viability, T/C",[19],23.5%
same,"viability, T/C",[20],29.2%
same,"viability, T/C",[21],23.1%
same,"viability, T/C",[22],27.4%
same,"viability, T/C",[23],24.4%
same,"viability, T/C",[24],17.1%
same,"viability, T/C",[25],0.23%
same,"viability, T/C",[26],0.16%
same,"viability, T/C",[27],1.14%
same,"viability, T/C",[28],0.33%
same,"viability, T/C",[29],2.95%
same,"viability, T/C",[30],2.82%
same,"viability, T/C",[31],2.14%
same,"viability, T/C",[32],2.06%
same,"viability, T/C",[33],2.2%
same,"viability, T/C",[34],1.77%
same,"viability, T/C",[35],3.1%
same,"viability, T/C",[36],1.47%
same,"viability, T/C",[37],0.09%
same,"viability, T/C",[38],3.55%
same,"viability, T/C",[39],1.83%
same,"viability, T/C",[40],0.13%
same,"viability, T/C",[41],3.63%
same,"viability, T/C",[42],0.27%
COc1ccc([C@@H](O)c2cc(-c3ncnc4cc(N5CCOCC5)ccc34)c(F)cc2Cl)nn1 + CNC(=O)c1ccc(Nc2nc(OC3CCCC3)c3c(-c4ccc5nc(C)oc5c4)c[nH]c3n2)c(OC)c1,IC50,[1],3.76 µM
same,IC50,[2],< 0.0316 µM
same,IC50,[3],< 0.0316 µM
same,IC50,[4],< 0.0316 µM
same,IC50,[5],< 0.0316 µM
same,IC50,[6],< 0.0316 µM
same,"viability, T/C",[7],51.2%
same,"viability, T/C",[8],56.5%
same,"viability, T/C",[9],43.4%
same,"viability, T/C",[10],58.7%
same,"viability, T/C",[11],55.4%
same,"viability, T/C",[12],33.3%
same,"viability, T/C",[13],10.5%
same,"viability, T/C",[14],8.48%
same,"viability, T/C",[15],12.4%
same,"viability, T/C",[16],10%
same,"viability, T/C",[17],9.78%
same,"viability, T/C",[18],12.6%
same,"viability, T/C",[19],8.21%
same,"viability, T/C",[20],8.88%
same,"viability, T/C",[21],8.95%
same,"viability, T/C",[22],7.72%
same,"viability, T/C",[23],10.2%
same,"viability, T/C",[24],12.2%
same,"viability, T/C",[25],10.3%
same,"viability, T/C",[26],8.67%
same,"viability, T/C",[27],10.8%
same,"viability, T/C",[28],9.89%
same,"viability, T/C",[29],9.31%
same,"viability, T/C",[30],12.8%
same,"viability, T/C",[31],9.71%
same,"viability, T/C",[32],9.31%
same,"viability, T/C",[33],9.23%
same,"viability, T/C",[34],9.82%
same,"viability, T/C",[35],10.5%
same,"viability, T/C",[36],13.2%
same,"viability, T/C",[37],10.6%
same,"viability, T/C",[38],10.8%
same,"viability, T/C",[39],8.9%
same,"viability, T/C",[40],13.1%
same,"viability, T/C",[41],12.2%
same,"viability, T/C",[42],12.5%
